Experimental data published in paper PMC2766550 (Peptides, 2009).
Values joined by “and” are separate entries in the source; they are usually repeats but may differ in a detail not shown here. Identical values can stand only once. Like-named read-outs stand apart in the source and are kept apart here. Square brackets hold non-standard residues; d marks the D form. Peptide text beside a SMILES is read from it. dPhe(F5) = N[C@H](Cc1c(F)c(F)c(F)c(F)c1F)C(=O)O

Tests used:
hGRP-receptor [1] = molecular target: T1, hGRP-receptor (Homo sapiens, UniProt P30550); assay: Whole cell radioligand binding, hGRP-receptor transfected Balb 3T3 cells; conditions: b34 values for receptors expressed in Balb 3T3 cells
T1 sequence (P30550 whole entry): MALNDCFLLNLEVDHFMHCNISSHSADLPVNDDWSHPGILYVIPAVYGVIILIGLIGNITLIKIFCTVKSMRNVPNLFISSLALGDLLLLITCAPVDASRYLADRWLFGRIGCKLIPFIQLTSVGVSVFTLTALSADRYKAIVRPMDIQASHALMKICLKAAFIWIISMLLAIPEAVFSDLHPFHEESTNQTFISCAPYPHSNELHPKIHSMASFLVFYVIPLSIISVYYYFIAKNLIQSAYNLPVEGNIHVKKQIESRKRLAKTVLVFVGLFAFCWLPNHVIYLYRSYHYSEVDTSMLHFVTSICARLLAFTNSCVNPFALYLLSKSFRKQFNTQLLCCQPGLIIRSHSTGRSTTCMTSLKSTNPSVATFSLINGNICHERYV

hGRP-receptor [2] = molecular target: T1, hGRP-receptor; assay: Whole cell radioligand binding, HuTu-80 cells
hNMB-receptor [3] = molecular target: T2, hNMB-receptor (Homo sapiens, UniProt P28336); assay: Whole cell radioligand binding, hNMB-receptor transfected Balb 3T3 cells; conditions: for IC50: IC50 hNMB-R Balb-3T3, hNMB-receptor transfected Balb 3T3 cells, 125I-[D-Tyr0]NMB, 1 h, 22°C, mean ± S.E.
T2 sequence (P28336 whole entry): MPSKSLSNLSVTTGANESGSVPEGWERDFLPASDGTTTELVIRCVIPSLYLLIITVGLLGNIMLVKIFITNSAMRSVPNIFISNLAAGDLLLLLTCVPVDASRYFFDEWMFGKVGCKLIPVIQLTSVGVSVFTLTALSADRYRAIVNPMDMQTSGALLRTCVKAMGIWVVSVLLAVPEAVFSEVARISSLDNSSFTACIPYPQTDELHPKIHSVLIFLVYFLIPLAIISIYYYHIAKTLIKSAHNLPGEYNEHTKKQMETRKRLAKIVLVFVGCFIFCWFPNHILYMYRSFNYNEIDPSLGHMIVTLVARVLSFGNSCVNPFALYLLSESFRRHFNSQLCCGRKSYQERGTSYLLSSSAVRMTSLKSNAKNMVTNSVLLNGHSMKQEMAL

hNMB-receptor [4] = molecular target: T2, hNMB-receptor; assay: Whole cell radioligand binding, hNMB-receptor transfected NCI-H1299 cells
hBRS-3 receptor = molecular target: T3, hBRS-3 receptor (Homo sapiens, UniProt P32247); assay: Whole cell radioligand binding, hBRS-3 transfected Balb 3T3 cells
T3 sequence (P32247 1-399): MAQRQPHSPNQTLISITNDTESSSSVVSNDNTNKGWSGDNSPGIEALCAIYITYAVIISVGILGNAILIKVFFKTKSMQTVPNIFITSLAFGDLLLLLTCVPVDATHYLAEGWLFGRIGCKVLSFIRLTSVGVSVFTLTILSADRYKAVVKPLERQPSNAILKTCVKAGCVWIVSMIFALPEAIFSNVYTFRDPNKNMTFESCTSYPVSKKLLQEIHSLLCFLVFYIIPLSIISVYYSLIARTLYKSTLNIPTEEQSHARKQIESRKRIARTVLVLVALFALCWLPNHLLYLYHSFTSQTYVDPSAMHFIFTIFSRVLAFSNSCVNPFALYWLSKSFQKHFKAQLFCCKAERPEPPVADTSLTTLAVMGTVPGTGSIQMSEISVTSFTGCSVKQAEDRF

hGRP-receptor [5] = molecular target: T1, hGRP-receptor; assay: [3H]inositol phosphate generation, hGRP-receptor transfected Balb 3T3 cells; type: cell-based; conditions: for [3H]IP hGRPR-R-Balb-3T3 Ag/Antag: agonist/antagonist classification, up to 10 μM
hGRP-receptor [6] = molecular target: T1, hGRP-receptor; assay: [3H]inositol phosphate generation, HuTu-80 cells; type: cell-based; conditions: for [3H]IP HuTu-80 (hGRP-R) Ag/Antag: agonist/antagonist classification, up to 10 μM
hNMB-receptor [7] = molecular target: T2, hNMB-receptor; assay: cell-based; conditions: for [3H]IP NCI-H1299 (hNMB-R) Ag/Antag: agonist/antagonist classification, up to 10 μM
hNMB-receptor [8] = molecular target: T2, hNMB-receptor; type: cell-based; conditions: for [3H]IP hNMB-R-Balb-3T3 Ag/Antag: agonist/antagonist classification, up to 10 μM; for agonist activity at hNMB-receptor: concentrations up to 10 μM, hNMB-receptor transfected Balb 3T3 or NCI-H1299 cells
hNMB-receptor [9] = molecular target: T2, hNMB-receptor; conditions: cited from earlier work
hGRP-receptors = conditions: cited from earlier work

Row | SMILES | selectivity for hGRP-receptor over hNMB-receptor (binding affinities) (hGRP-receptor [1]) | IC50 (hGRP-receptor [2]) | IC50 (hNMB-receptor [3]) | IC50 (hNMB-receptor [4]) | IC50 (hBRS-3 receptor) | IC50 (hGRP-receptor [5]) | IC50 (hGRP-receptor [6]) | IC50 (hNMB-receptor [7]) | [3H]IP hGRPR-R-Balb-3T3 Ag/Antag (hGRP-receptor [5]) | [3H]IP HuTu-80 (hGRP-R) Ag/Antag (hGRP-receptor [6]) | [3H]IP hNMB-R-Balb-3T3 Ag/Antag (hNMB-receptor [8]) | agonist activity at hNMB-receptor (hNMB-receptor [8]) | [3H]IP NCI-H1299 (hNMB-R) Ag/Antag (hNMB-receptor [7]) | further results
1 | COC(=O)[C@H](CC(C)C)NC(=O)[C@H](Cc1c[nH]cn1)NC(=O)CNC(=O)[C@@H](NC(=O)[C@H](C)NC(=O)[C@H](Cc1c[nH]c2ccccc12)NC(=O)[C@H](CCC(N)=O)NC(=O)[C@H](N)Cc1ccccc1)C(C)C [Peptide 17, [D-Phe^6]Bn-(6-13)Methyl ester (ME)] | > 10,000 fold | 3.98 ± 0.8 nM | > 10000 nM | > 10000 nM | 5290 ± 1990 nM | 15.5 ± 1 nM | 10.9 ± 1.5 nM | > 10000 nM | – | – | – | – | – | –
2 | CC(Cc1c[nH]c2ccccc12)(NC(=O)Nc1ccc([N+](=O)[O-])cc1)C(=O)NCC1(c2ccccn2)CCCCC1 (centres unmarked) [Peptide 34, 3-(1H-Indol-3-yl)-2-methyl-2-[3(4-nitro-phenyl)-ureido]-N-(1-pyridin-2-yl-cyclohexylmethyl)-propionamide, reference compound] | – | 1740 ± 105 nM | 0.51 ± 0.02 nM | 0.25 ± 0.02 nM | > 10000 nM | > 3000 nM | 1780 ± 57 nM | 24.5 ± 1.2 nM | No act | Antag | Antag | did not have agonist activity | Antag | selectivity for hNMB-receptor over hGRP-receptor (binding affinities) (hNMB-receptor [3]; listed as PD168368): 7,000 fold; hGRPR Ag/Antag (hGRP-receptor [6]; Table 5 species comparison, human values of this study (HuTu-80)): Antag; selectivity for hNMB-receptor over hGRP-receptor based on potency for inhibiting agonist-stimulated [3H]IP (hNMB-receptor [8]): 33 to 100 fold; hNMBR Ag/Antag (hNMB-receptor [7]; Table 5 species comparison, human values of this study (NCI-H1299)): Antag; hNMB- or rNMB-receptor selectivity in other studies (hNMB-receptor [9]): 40 fold; IC50 (hNMB-receptor [9]; read-out: IC50 for hNMB-receptors, other studies on human cells): 15 nM
3 | COC(=O)[C@H](CC(C)C)NC(=O)[C@H](Cc1c[nH]cn1)NC(=O)[C@@H](C)NC(=O)[C@@H](NC(=O)[C@H](C)NC(=O)[C@H](Cc1c[nH]c2ccccc12)NC(=O)[C@H](CCC(N)=O)NC(=O)[C@H](N)Cc1c(F)c(F)c(F)c(F)c1F)C(C)C [Peptide 18, [D-F-5, Phe^6, D-Ala^11]Bn(6-13)Metyl ester (ME)] (H-[dPhe(F5)]QWAV[dA]HL-OMe) | > 11,000 fold and > 10,000 fold | 0.12 ± 0.01 nM | > 10000 nM | > 10000 nM | > 10000 nM | 3.6 ± 0.2 nM | 4.2 ± 0.9 nM | – | – | – | – | – | – | –
4 | CCOC(=O)[C@H](CC(C)C)NC(=O)[C@H](Cc1c[nH]cn1)NC(=O)CNC(=O)[C@@H](NC(=O)[C@H](C)NC(=O)[C@H](Cc1c[nH]c2ccccc12)NC(=O)[C@H](CCC(N)=O)NC(=O)[C@H](N)Cc1ccccc1)C(C)C [Peptide 20, [D-Phe^6]Bn-(6-13)Ethyl ester] | > 10,000 fold | 0.14 ± 0.03 nM | > 10000 nM | > 10000 nM | 5300 ± 1400 nM | 2 ± 0.3 nM | 1.4 ± 0.8 nM | – | – | – | – | – | – | –
5 | COc1ccc(C2(CNC(=O)C(C)(Cc3c[nH]c4ccccc34)NC(=O)Nc3ccc([N+](=O)[O-])cc3)CCCCC2)nc1 (centres unmarked) [Peptide 33, 3-(1H-Indol-3-yl)-N-[1-(5-methoxy-pyridin-2-yl)-cyclohexylmethyl]-2-methyl-2-[3-(4-nitro-phenyl)-ureido]-propionamide, reference compound] | – | 170 ± 11 nM | – | – | > 10000 nM | – | 275 ± 13 nM | – | Antag | Antag | Antag | did not have agonist activity | Antag | affinity for hGRP-receptors in a second study (hGRP-receptors): 20 to 30 nM; Ki (hGRP-receptors; read-out: Ki for hGRP-receptors in a previous study): 1 nM
